These results are taken from patent US9556183B2, “Substituted pyrazolylpyrazole derivative and use of same as herbicide” (KYOYU AGRI CO., LTD., priority 2013, dated 2017).

Data set [1] concerns Monochoria vaginalis. Nature of the data set: Paddy herbicidal activity test. The format is in vivo. The settings on record: irrigated paddy pot, 30 days. In outline:
(§1)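 Flooded paddy-soil pots (3 cm water) sown with weeds; rice at 2.0 leaf stage transplanted when Echinochloa reached 3.5 leaf stage, then diluted wettable powder dropped into water at prescribed rate per are. After 30 days in greenhouse (mean 30° C), growth inhibition vs untreated (efficacy) or vs complete kill (phytotoxicity) scored on 11 levels.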

The subject of data set [2] is Scirpus juncoides. Nature of the data set: Paddy herbicidal activity test. The format is in vivo. To be noted: irrigated paddy pot, 30 days. In outline:
as §1

Data set [3] concerns Echinochloa crus-galli. Description: Paddy herbicidal activity test. The format is in vivo. To be noted: irrigated paddy pot, treated at 3.5 leaf stage of Echinochloa crus-galli, 30 days. In outline: as §1
For data set [4], the system named is Digitaria ciliaris. Nature of the data set: Farming soil treatment test. In kind it is in vivo. The settings on record: soil surface spray prior to weed growth, 30 days. In outline: (§2)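 Preemergence soil treatment: field soil pots seeded and covered, then wettable-powder formulations diluted in water sprayed on soil surface at 10 L water per are before weed emergence. Growth inhibition (%) versus untreated pots rated on an 11-level scale after 30 days in greenhouse at average 30 °C.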

Data set [5] relates to Chenopodium album. Description: Farming soil treatment test. The format is in vivo. To be noted: soil surface spray prior to weed growth, 30 days. Put shortly: as §2
In data set [6] the test system is Amaranthus retroflexus. Nature of the data set: Farming soil treatment test. To be noted: soil surface spray prior to weed growth, 30 days. The format is in vivo. In outline: as §2
Data set [7] has as its system Digitaria ciliaris. Nature of the data set: Weed foliar treatment test. The format is in vivo. The settings on record: foliar spray at 1.0 to 2.0 leaf stage of Digitaria ciliaris, 3 weeks. Put shortly:
(§3)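 Pot-grown weeds were raised in a 25 °C greenhouse and sprayed post-emergence with water-diluted wettable powder at 15 L water per are, at the 1.0-2.0 leaf stage of Digitaria ciliaris. Efficacy was rated 3 weeks later as growth inhibition versus untreated plants on an 11-level scale.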

The test system of data set [8] is Chenopodium album. Nature of the data set: Weed foliar treatment test. In kind it is in vivo. To be noted: foliar spray, 3 weeks. Put shortly:
as §3

Data set [9] deals with Amaranthus retroflexus. Nature of the data set: Weed foliar treatment test. To be noted: foliar spray, 3 weeks. In kind it is in vivo. In outline:
as §3

Data set [10] relates to Rice plants. Description: Paddy herbicidal activity test, phytotoxicity to transplanted rice. The format is in vivo. The settings on record: rice transplanted at 2.0 leaf stage, 30 days. Put shortly:
as §1

Structures are written as SMILES.

Broadly, the melting point is the temperature of the solid-liquid transition. Compound `CC(Nc1c(C#N)cnn1-c1nn2c(c1Cl)CCCC2)C1CC1` (stereo not drawn) [Compound 9, 1-(3-chloro-4,5,6,7-tetrahydropyrazolo[1,5-a]pyridin-2-yl)-5-(1-cyclopropylethylamino)pyrazole-4-carbonitrile] had a melting point of 104 to 108 °C. The “herbicidal efficacy (growth inhibition rate level) Monochoria vaginalis” value in data set [1] (1g a.i./10a) is reported as 8 (8: 80% to less than 90%). For the same compound, in data set [1] (5g a.i./10a), the “herbicidal efficacy (growth inhibition rate level) Monochoria vaginalis” value is given as 9 (9: 90% to less than 100%). Besides, in [2] (1g a.i./10a), the “herbicidal efficacy (growth inhibition rate level) Scirpus juncoides” value was 8 (8: 80% to less than 90%). The “herbicidal efficacy (growth inhibition rate level) Scirpus juncoides” value in data set [2] (5g a.i./10a) was 8 (8: 80% to less than 90%). In data set [3] (1g a.i./10a), the “herbicidal efficacy (growth inhibition rate level) Echinochloa crus-galli” value is given as 9 (9: 90% to less than 100%). Also, in data set [3] (5g a.i./10a), the “herbicidal efficacy (growth inhibition rate level) Echinochloa crus-galli” value is listed as 9 (9: 90% to less than 100%). Moreover, in data set [4] (5g a.i./10a), the “herbicidal efficacy (growth inhibition rate level) Digitaria ciliaris” value was 10 (10: 100%). In [4] (10g a.i./10a), the “herbicidal efficacy (growth inhibition rate level) Digitaria ciliaris” value is reported as 10 (10: 100%). Moreover, the “herbicidal efficacy (growth inhibition rate level) Chenopodium album” value in data set [5] (5g a.i./10a) is reported as 10 (10: 100%). In addition, the “herbicidal efficacy (growth inhibition rate level) Chenopodium album” value in [5] (10g a.i./10a) is 10 (10: 100%). The “herbicidal efficacy (growth inhibition rate level) Amaranthus retroflexus” value in data set [6] (5g a.i./10a) is 10 (10: 100%). Besides, the “herbicidal efficacy (growth inhibition rate level) Amaranthus retroflexus” value in data set [6] (10g a.i./10a) was 10 (10: 100%). Also, in [7] (5g a.i./10a), the “herbicidal efficacy (growth inhibition rate level) Digitaria ciliaris” value was 10 (10: 100%). Further, in data set [7] (10g a.i./10a), the “herbicidal efficacy (growth inhibition rate level) Digitaria ciliaris” value is given as 10 (10: 100%). Further, the “herbicidal efficacy (growth inhibition rate level) Chenopodium album” value in data set [8] (5g a.i./10a) is recorded as 10 (10: 100%). In addition, the “herbicidal efficacy (growth inhibition rate level) Chenopodium album” value in [8] (10g a.i./10a) is on record as 10 (10: 100%). Moreover, the “herbicidal efficacy (growth inhibition rate level) Amaranthus retroflexus” value in [9] (5g a.i./10a) was 10 (10: 100%). Further, the “herbicidal efficacy (growth inhibition rate level) Amaranthus retroflexus” value in data set [9] (10g a.i./10a) is 10 (10: 100%). Besides, the “phytotoxicity (growth inhibition rate level) Rice plants” value in data set [10] (1g a.i./10a) is 0 (0 (exponent): 0% to less than 10% (growth inhibition rate)). Further, the “phytotoxicity (growth inhibition rate level) Rice plants” value in data set [10] (5g a.i./10a) was 1 (1: 10% to less than 20%).
